Data: the supplement of paper PMC8967900

System: NALM-16
Experiment: selective drug sensitivity score (sDSS, relative to normal bone marrow) (sDSS (score)); higher = more potent and effective on the cell line relative to normal bone marrow cells
Settings: 72 h
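Also: ALL cell lines in 384-well plates, five doses spanning 10,000-fold, each plate scaled between vehicle and 100 µmol/L benzalkonium chloride controls, sDSS an adapted area-under-curve metric.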

**Q.** For `Cn1cc(C2=C(c3cn(C4CCN(Cc5ccccn5)CC4)c4ccccc34)C(=O)NC2=O)c2ccccc21` [Enzastaurin] (top concentration 10000 nM), which “selective drug sensitivity score” value is on record?
**A.** Its value is 5.56.

**Q.** How did the “selective drug sensitivity score” value turn out when `NS(=O)(=O)NCCNc1nonc1/C(=N/O)Nc1ccc(F)c(Br)c1` [Epacadostat] (top concentration 10000 nM) was run?
**A.** The value was -0.26.

**Q.** `CCOc1ccccc1-n1c(C(C)N2CCN(C(=O)COc3ccc(Cl)cc3)CC2)nc2ccccc2c1=O` (stereo not given) [Erastin] (top concentration 10000 nM) was tested. Which “selective drug sensitivity score” value did it give?
**A.** The value was 9.34.

**Q.** `COc1cc(OC)cc(N(CCNC(C)C)c2ccc3ncc(-c4cnn(C)c4)nc3c2)c1` [Erdafitinib] (top concentration 1000 nM) was tested. Which “selective drug sensitivity score” value did it give?
**A.** Its value is -0.56.

**Q.** `CC(C)(C)NC(=O)[C@H]1CC[C@H]2[C@@H]3CC[C@H]4NC(=O)C=C[C@]4(C)[C@H]3CC[C@]12C` [Finasteride] (top concentration 10000 nM) was tested. Which “selective drug sensitivity score” value did it give?
**A.** The value was -0.52.

**Q.** `O=c1[nH]c(=O)n([C@H]2C[C@H](O)[C@@H](CO)O2)cc1F` [Floxuridine] (top concentration 10000 nM) was tested. Which “selective drug sensitivity score” value did it give?
**A.** Its value is 10.2.

**Q.** How did the “selective drug sensitivity score” value turn out when `CNc1nc(Nc2cn(C(C)(C)C#N)nc2C)ncc1C(F)(F)F` [GNE-0877] (top concentration 1000 nM) was run?
**A.** Its value is 0.

**Q.** With `CCCc1cc(C)[nH]c(=O)c1CNC(=O)c1cc(-c2ccnc(N3CCN(C)CC3)c2)cc2c1cnn2C(C)C` [GSK343] (top concentration 1000 nM) as the compound, how does the “selective drug sensitivity score” value read?
**A.** Its value is 0.

**Q.** With `O=C(O)c1ccc(O)c2ncccc12` [IOX-1] (top concentration 100000 nM) as the compound, how does the “selective drug sensitivity score” value read?
**A.** The value was 4.64.

System: ALL-SIL
Experiment: as above
Settings: 72 h

**Q.** For `CCCCCOC(=O)Nc1nc(=O)n([C@@H]2O[C@H](C)[C@@H](O)[C@H]2O)cc1F` [Capecitabine] (top concentration 10000 nM), which “selective drug sensitivity score” value is on record?
**A.** Its value is -0.06.

**Q.** With `Nc1nc(Cl)nc2c1ncn2[C@H]1C[C@H](O)[C@@H](CO)O1` [Cladribine] (top concentration 1000 nM) as the compound, how does the “selective drug sensitivity score” value read?
**A.** Its value is 9.36.

**Q.** With `CCN(CC)CCOc1ccc(/C(=C(/Cl)c2ccccc2)c2ccccc2)cc1` [Clomifene] (top concentration 10000 nM) as the compound, how does the “selective drug sensitivity score” value read?
**A.** Its value is 0.12.

**Q.** With `CO[C@@H](C(=O)N1Cc2[nH]nc(NC(=O)c3ccc(N4CCN(C)CC4)cc3)c2C1)c1ccccc1` [Danusertib] (top concentration 10000 nM) as the compound, how does the “selective drug sensitivity score” value read?
**A.** Its value is 22.8.

**Q.** For `CC[C@@](C)(Nc1ccnc(-c2c[nH]c3ncccc23)n1)C(=O)NCC(F)(F)F` [Decernotinib] (top concentration 10000 nM), which “selective drug sensitivity score” value is on record?
**A.** The value was -2.44.

**Q.** How did the “selective drug sensitivity score” value turn out when `CN1CCN(c2ccc3nc(-c4c(N)c5c(F)cccc5[nH]c4=O)[nH]c3c2)CC1` [Dovitinib] (top concentration 10000 nM) was run?
**A.** The value was -0.14.

**Q.** Which “selective drug sensitivity score” value does the source give for `CC(C)(O)CNc1nc(Nc2ccnc(C(F)(F)F)c2)nc(-c2cccc(C(F)(F)F)n2)n1` [Enasidenib] (top concentration 10000 nM) here?
**A.** Its value is 1.8.

**Q.** How did the “selective drug sensitivity score” value turn out when `CN1CCN(c2ccc(C(=O)Nc3n[nH]c4ccc(Cc5cc(F)cc(F)c5)cc34)c(NC3CCOCC3)c2)CC1` [Entrectinib] (top concentration 1000 nM) was run?
**A.** The value was -0.6.

**Q.** For `CNC(=O)c1ccc(N2C(=S)N(c3ccc(C#N)c(C(F)(F)F)c3)C(=O)C2(C)C)cc1F` [Enzalutamide] (top concentration 10000 nM), which “selective drug sensitivity score” value is on record?
**A.** The value was -0.82.

**Q.** `Cn1cc(C2=C(c3cn(C4CCN(Cc5ccccn5)CC4)c4ccccc34)C(=O)NC2=O)c2ccccc21` [Enzastaurin] (top concentration 10000 nM) was tested. Which “selective drug sensitivity score” value did it give?
**A.** The value was 3.96.

**Q.** `NS(=O)(=O)NCCNc1nonc1/C(=N/O)Nc1ccc(F)c(Br)c1` [Epacadostat] (top concentration 10000 nM) was tested. Which “selective drug sensitivity score” value did it give?
**A.** The value was -0.26.

**Q.** How did the “selective drug sensitivity score” value turn out when `CCOc1ccccc1-n1c(C(C)N2CCN(C(=O)COc3ccc(Cl)cc3)CC2)nc2ccccc2c1=O` (stereo not given) [Erastin] (top concentration 10000 nM) was run?
**A.** The value was 6.94.

**Q.** `COc1cc(OC)cc(N(CCNC(C)C)c2ccc3ncc(-c4cnn(C)c4)nc3c2)c1` [Erdafitinib] (top concentration 1000 nM) was tested. Which “selective drug sensitivity score” value did it give?
**A.** Its value is 2.74.

**Q.** Which “selective drug sensitivity score” value does the source give for `CC(C)(C)NC(=O)[C@H]1CC[C@H]2[C@@H]3CC[C@H]4NC(=O)C=C[C@]4(C)[C@H]3CC[C@]12C` [Finasteride] (top concentration 10000 nM) here?
**A.** The value was 1.78.

**Q.** `O=c1[nH]c(=O)n([C@H]2C[C@H](O)[C@@H](CO)O2)cc1F` [Floxuridine] (top concentration 10000 nM) was tested. Which “selective drug sensitivity score” value did it give?
**A.** Its value is 18.3.

**Q.** Which “selective drug sensitivity score” value does the source give for `CNc1nc(Nc2cn(C(C)(C)C#N)nc2C)ncc1C(F)(F)F` [GNE-0877] (top concentration 1000 nM) here?
**A.** Its value is 0.

**Q.** Which “selective drug sensitivity score” value does the source give for `CCCc1cc(C)[nH]c(=O)c1CNC(=O)c1cc(-c2ccnc(N3CCN(C)CC3)c2)cc2c1cnn2C(C)C` [GSK343] (top concentration 1000 nM) here?
**A.** Its value is 0.

**Q.** For `O=C(O)c1ccc(O)c2ncccc12` [IOX-1] (top concentration 100000 nM), which “selective drug sensitivity score” value is on record?
**A.** The value was 6.24.

System: SUP-B15
Experiment: as above
Settings: 72 h

**Q.** For `CCCCCOC(=O)Nc1nc(=O)n([C@@H]2O[C@H](C)[C@@H](O)[C@H]2O)cc1F` [Capecitabine] (top concentration 10000 nM), which “selective drug sensitivity score” value is on record?
**A.** The value was -0.06.

**Q.** `Nc1nc(Cl)nc2c1ncn2[C@H]1C[C@H](O)[C@@H](CO)O1` [Cladribine] (top concentration 1000 nM) was tested. Which “selective drug sensitivity score” value did it give?
**A.** The value was 9.36.

**Q.** Which “selective drug sensitivity score” value does the source give for `CCN(CC)CCOc1ccc(/C(=C(/Cl)c2ccccc2)c2ccccc2)cc1` [Clomifene] (top concentration 10000 nM) here?
**A.** The value was 0.12.

**Q.** With `CO[C@@H](C(=O)N1Cc2[nH]nc(NC(=O)c3ccc(N4CCN(C)CC4)cc3)c2C1)c1ccccc1` [Danusertib] (top concentration 10000 nM) as the compound, how does the “selective drug sensitivity score” value read?
**A.** Its value is 18.6.

**Q.** With `CC[C@@](C)(Nc1ccnc(-c2c[nH]c3ncccc23)n1)C(=O)NCC(F)(F)F` [Decernotinib] (top concentration 10000 nM) as the compound, how does the “selective drug sensitivity score” value read?
**A.** Its value is -3.94.

**Q.** Which “selective drug sensitivity score” value does the source give for `CN1CCN(c2ccc3nc(-c4c(N)c5c(F)cccc5[nH]c4=O)[nH]c3c2)CC1` [Dovitinib] (top concentration 10000 nM) here?
**A.** The value was 0.26.

**Q.** Which “selective drug sensitivity score” value does the source give for `CC(C)(O)CNc1nc(Nc2ccnc(C(F)(F)F)c2)nc(-c2cccc(C(F)(F)F)n2)n1` [Enasidenib] (top concentration 10000 nM) here?
**A.** The value was -0.3.

**Q.** For `CN1CCN(c2ccc(C(=O)Nc3n[nH]c4ccc(Cc5cc(F)cc(F)c5)cc34)c(NC3CCOCC3)c2)CC1` [Entrectinib] (top concentration 1000 nM), which “selective drug sensitivity score” value is on record?
**A.** The value was -0.7.

**Q.** With `CNC(=O)c1ccc(N2C(=S)N(c3ccc(C#N)c(C(F)(F)F)c3)C(=O)C2(C)C)cc1F` [Enzalutamide] (top concentration 10000 nM) as the compound, how does the “selective drug sensitivity score” value read?
**A.** The value was 3.38.

**Q.** `Cn1cc(C2=C(c3cn(C4CCN(Cc5ccccn5)CC4)c4ccccc34)C(=O)NC2=O)c2ccccc21` [Enzastaurin] (top concentration 10000 nM) was tested. Which “selective drug sensitivity score” value did it give?
**A.** The value was 4.86.

**Q.** How did the “selective drug sensitivity score” value turn out when `NS(=O)(=O)NCCNc1nonc1/C(=N/O)Nc1ccc(F)c(Br)c1` [Epacadostat] (top concentration 10000 nM) was run?
**A.** Its value is -0.26.

**Q.** With `CCOc1ccccc1-n1c(C(C)N2CCN(C(=O)COc3ccc(Cl)cc3)CC2)nc2ccccc2c1=O` (stereo not given) [Erastin] (top concentration 10000 nM) as the compound, how does the “selective drug sensitivity score” value read?
**A.** The value was 14.

**Q.** For `COc1cc(OC)cc(N(CCNC(C)C)c2ccc3ncc(-c4cnn(C)c4)nc3c2)c1` [Erdafitinib] (top concentration 1000 nM), which “selective drug sensitivity score” value is on record?
**A.** The value was -0.46.

**Q.** How did the “selective drug sensitivity score” value turn out when `CC(C)(C)NC(=O)[C@H]1CC[C@H]2[C@@H]3CC[C@H]4NC(=O)C=C[C@]4(C)[C@H]3CC[C@]12C` [Finasteride] (top concentration 10000 nM) was run?
**A.** The value was 3.08.

**Q.** With `O=c1[nH]c(=O)n([C@H]2C[C@H](O)[C@@H](CO)O2)cc1F` [Floxuridine] (top concentration 10000 nM) as the compound, how does the “selective drug sensitivity score” value read?
**A.** The value was 42.4.

**Q.** For `CNc1nc(Nc2cn(C(C)(C)C#N)nc2C)ncc1C(F)(F)F` [GNE-0877] (top concentration 1000 nM), which “selective drug sensitivity score” value is on record?
**A.** The value was 0.

**Q.** How did the “selective drug sensitivity score” value turn out when `CCCc1cc(C)[nH]c(=O)c1CNC(=O)c1cc(-c2ccnc(N3CCN(C)CC3)c2)cc2c1cnn2C(C)C` [GSK343] (top concentration 1000 nM) was run?
**A.** Its value is 0.

**Q.** With `O=C(O)c1ccc(O)c2ncccc12` [IOX-1] (top concentration 100000 nM) as the compound, how does the “selective drug sensitivity score” value read?
**A.** Its value is 4.24.
